Values belong to the molecule of their own block, whether it stands above or below them.
Legend:
Format in all cases: cell-based, mice
EphA4 [1] = assay: EphA4 expression in cultured astrocytes (Western analysis); settings: 72 hrs, compared with untreated controls
Description: (§1) For biochemical analysis of astrocytes, factors as indicated were added to 80% confluent monolayers in 10 cm plates (Falcon, USA) for the times indicated. EphrinA5-Fc (available from the inventors) was pre-complexed as above.
(§2) Cells were lysed and a sample kept aside for analysis of total protein levels. The remainder of the lysate was used for immunoprecipitation in EphA4 or Rho activation assays. EphA4 activation was determined by immunoprecipitation of phosphorylated proteins using anti-phosphotyrosine (Cell Signaling), followed by Western transfer and detection of activated or total EphA4 using a rabbit anti-EphA4 antibody (kindly provided by Dr. D. Wilkinson, National Institute for Medical Research, London). Rho activation assays were performed using the Rhotekin RBD assay, according to the manufacturer's instructions (Upstate, USA). Total EphA4 and β-actin expression levels were determined in non-lesioned and 7 d post-lesioned spinal cords by Western analysis using rabbit anti-EphA4 antibody as above and mouse anti-β-actin antibody (Sigma). Densitometry was performed on the autoradiographs using NIH Image software to determine relative levels of the EphA4 bands and normalized to β-actin levels.

Rho = Rho activation in cultured astrocytes (Rhotekin RBD assay)
Description: as §1, §2

astrocytes = assay: In vitro astrocyte proliferation assay (MTT); settings: up to 72 hrs, LIF 1000 U/ml, IFN-γ 100 U/ml; for proliferation of WT astrocytes: wildtype astrocytes
Description: The [3-(4,5-dimethylthiazol-2-yl)-2,5-diphenyl]tetrazolium bromide (MTT) assay, which determines mitochondrial activity in living cells, is commonly used as a proliferation assay (Mosmann, J Immunol Methods 65:55-63, 1983). Living cells transform the tetrazolium ring into dark blue formazan crystals, which can be quantified by reading the optical density (O.D.); an increase in O.D. correlates with an increase in cell number over time. Wildtype and EphA4−/− astrocytes were plated on 96 well plates (Falcon) at 3×10^3 cells/well in DMEM supplemented with 10% FCS in the presence or absence of either LIF (1000 U/ml) or IFN-γ (100 U/ml). The MTT assay was performed at 2, 24, 48 and 72 hours after plating. MTT (0.25 mg/ml) was incubated with the cells at each timepoint for 2 hours at 37° C., the cells were then lysed with an equal volume of acidic isopropanol (0.04M HCL in absolute isopropanol) and the O.D. of the formazan product was measured at 550-650 nm.

EphA4 [2] = molecular target: T1, EphA4 (Mus musculus, UniProt Q03137); assay: EphA4 phosphorylation in cultured astrocytes (anti-phosphotyrosine immunoprecipitation, Western)
T1 construct: chamber slides (Falcon, USA) containing wildtype or EphA4−/− astrocyte monolayers; endogenous in cells; host or cells: primary purified astrocyte cultures from wildtype mice
Description: as §1, §2

T1 sequence (Q03137 20-986): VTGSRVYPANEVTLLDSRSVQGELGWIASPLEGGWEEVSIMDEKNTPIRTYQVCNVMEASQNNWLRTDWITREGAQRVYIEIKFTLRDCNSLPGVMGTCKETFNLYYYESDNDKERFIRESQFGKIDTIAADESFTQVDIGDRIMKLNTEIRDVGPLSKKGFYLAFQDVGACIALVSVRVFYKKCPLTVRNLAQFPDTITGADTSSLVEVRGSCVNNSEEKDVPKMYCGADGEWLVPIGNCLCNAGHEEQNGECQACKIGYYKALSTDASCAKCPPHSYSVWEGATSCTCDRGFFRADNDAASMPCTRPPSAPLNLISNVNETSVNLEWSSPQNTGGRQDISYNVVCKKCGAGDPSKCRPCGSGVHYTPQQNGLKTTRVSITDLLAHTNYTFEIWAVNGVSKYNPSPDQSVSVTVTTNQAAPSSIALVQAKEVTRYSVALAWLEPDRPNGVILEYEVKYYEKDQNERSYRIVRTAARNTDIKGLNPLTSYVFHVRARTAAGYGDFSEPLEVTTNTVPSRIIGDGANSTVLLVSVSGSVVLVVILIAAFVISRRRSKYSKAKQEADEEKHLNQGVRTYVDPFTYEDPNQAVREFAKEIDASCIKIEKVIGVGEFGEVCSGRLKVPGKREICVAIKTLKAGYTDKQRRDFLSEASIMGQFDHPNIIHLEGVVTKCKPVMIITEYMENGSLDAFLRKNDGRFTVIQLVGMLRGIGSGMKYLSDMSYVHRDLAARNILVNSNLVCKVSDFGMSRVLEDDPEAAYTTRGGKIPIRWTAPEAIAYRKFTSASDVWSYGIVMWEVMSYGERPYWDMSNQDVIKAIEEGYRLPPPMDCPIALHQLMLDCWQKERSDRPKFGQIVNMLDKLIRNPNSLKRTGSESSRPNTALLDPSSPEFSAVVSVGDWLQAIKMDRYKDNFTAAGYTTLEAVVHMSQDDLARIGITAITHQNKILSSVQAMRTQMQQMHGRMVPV

Molecule: IFNγ: Interferon-γ, inflammatory cytokine, inducer of astrocytic gliosis
- upregulation of EphA4 expression on astrocytes (EphA4 [1]): 56%
- Rho activation (RhoGTP) in EphA4−/− astrocytes (Rho; EphA4−/− astrocytes in culture): not
- Rho activation (RhoGTP) in wildtype astrocytes (Rho; wildtype astrocytes in culture): activated Rho
- proliferation response of EphA4−/− astrocytes (astrocytes): markedly decreased
- proliferation of WT astrocytes (astrocytes): increased proliferation

Molecule: TNFα
- upregulation of EphA4 expression on astrocytes (EphA4 [1]): no effect

Now from value to molecule, other results behind:

- upregulation of EphA4 phosphorylation (EphA4 [2]): 2 fold
Molecule: LIF: Leukemia inhibitory factor, inflammatory cytokine
- upregulation of EphA4 expression on astrocytes (EphA4 [1]): 69%
- proliferation response of EphA4−/− astrocytes (astrocytes): markedly decreased
- proliferation of WT astrocytes (astrocytes): increased proliferation

- upregulation of EphA4 phosphorylation (EphA4 [2]): 2 fold
B1: IFNγ: Interferon-γ, inflammatory cytokine, inducer of astrocytic gliosis (protein, UniProt P01579 24-161, looked up)
Interferon gamma: QDPYVKEAENLKKYFNAGHSDVADNGTLFLGILKNWKEESDRKIMQSQIVSFYFKLFKNFKDDQSIQKSVETIKEDMNVKFFNSNKKKRDDFEKLTNYSVTDLNVQRKAIHELIQVMAELSPAAKTGKRKRSQMLFRG

Source: US20080254023A1, “Treating Gliosis, Glial Scarring, Inflammation or Inhibition of Axonal Growth in the Nervous System by Modulating Eph Receptor” (THE UNIVERSITY OF QUEENSLAND, priority 2004, published 2008)
